Assay results: patent US20260166029A1, “METHODS AND SYSTEMS FOR TREATING DISEASE USING AN ATR/CHK1 SIGNALING PATHWAY INHIBITOR” (Acrivon Therapeutics, Inc., priority 2022, published 2026)
“And” between values parts separate entries of the source, which are not always exact repeats. Equal entries are not always repeated. Where two headings read alike, the source gives them in different places.

Legend:
[1] = test system: metastatic high-grade serous ovarian cancer; assay: Observed response in phase 2 clinical trials, patients with FFPE pre-treatment biopsies (Example 5); format: in vivo, human; design: key to RECIST response category: SD: stable disease;; PR: partial response;; PD: progressive disease;; details: for RECIST Responder: RECIST response = PR or CR
From the text: Biopsy samples from several independent clinical phase 2 studies were merged for this analysis based on availability. Study JTJN (NCT03414047) was a large multicenter, multi-country, non-randomized, parallel cohort, Phase 2 study of prexasertib in subjects with advanced stage, high grade serous ovarian, primary peritoneal, or fallopian tube cancer. Several single-center phase 2 studies sponsored by NCI of prexasertib in BRCA ½ wild-type or BRCA ½ mutant recurrent high-grade serous ovarian cancer (NCT02203513) provided additional FFPE samples; see Lee, Lancet Oncol. 19(2): 207-215 (2018). To evaluate whether a provided Response-Predictive Signature can successfully predict patient responders, sections of pre-treatment tumor biopsies were stained blinded to treatment outcome using antibodies against three biomarkers (biomarker 1 (BM1) Ser296 phosphorylated Chk1, biomarker 2 (BM2) Ser473 phosphorylated Kap1, and biomarker 3 (BM3) total cyclin E1) and imaged using immunofluorescence microscopy. The tumor samples were additionally stained using an antibody against cytokeratin in order to identify and distinguish tumor cells of interest from the surrounding stroma and stained with DAPI to identify cell nuclei.
The Response-Predictive Signature was evaluated by comparing predicted response to prexasertib of each patient to observed response in the clinical trials (Table 8, FIG. 15). Observed clinical trial responses were provided separately to the third party biostatistician. They were classified according to RECIST criteria as complete response (CR), partial response (PR), stable disease (SD), or progressive disease (PD). Additionally, the observed treatment outcome was quantified based on the maximum fractional change in tumor volume after treatment (Table 8, FIG. 15). […] Clinical RECIST responder rate (PR or CR) among those predicted by the Response-Predictive Signature to be non-responders was 5%. Clinical RECIST responder rate (PR or CR) among those predicted by the Response-Predictive Signature to be responders was 58%. This 58% represented a substantial responder-enrichment over the overall unenriched response rate of 25%.

OVCAR3 cells = assay: Cell Titer Glo 2.0 viability after biomarker siRNA knockdown (Example 6); format: cell-based; details: Homo sapiens, OVCAR-3, 72 h, read-out: absolute EC50
Description: OVCAR3 cells cultured in RPMI medium with 20% FBS were transfected with siRNA (Silencer Select, cat #4390824, ThermoFisher) targeting TRIM28 (KAP1) CCNE1, CCNA2, or CHEK2, as compared with a negative control siRNA (cat #4390843, ThermoFisher) using RNAiMAX transfection reagent (ThermoFisher). Twenty-four hours after the transfection, cells were reseeded into 384-well plates and left to adhere for 24 hours before being treated with increasing doses of prexasertib. Relative cell viability against a DMSO control was assessed 72 hours after drug treatment using Cell Titer Glo 2.0 (Promega) and a SpectraMax microplate reader. Error bars represent standard deviations from quadruplicate samples.

Head and Neck, SCC = details: cited from earlier work
[2] = individual patients predicted non-responder (NR)
[3] = individual patients predicted responder (R)

EC50 (OVCAR3 cells; BM1 (CHEK2 (Chk2)) siRNA knockdown): 31 nM
EC50 (OVCAR3 cells; BM2 (TRIM28 (KAP1)) siRNA knockdown): > 10000 nM
EC50 (OVCAR3 cells; BM3 (CCNA2 (cyclin A2)) siRNA knockdown): 164 nM
EC50 (OVCAR3 cells; BM3 (CCNE1) siRNA knockdown): > 10000 nM
EC50 (OVCAR3 cells; negative control siRNA in the BM1 (CHEK2 (Chk2)) knockdown experiment): 12 nM
EC50 (OVCAR3 cells; negative control siRNA in the BM2 (TRIM28 (KAP1)) knockdown experiment): 100 nM
EC50 (OVCAR3 cells; negative control siRNA in the BM3 (CCNA2 (cyclin A2)) knockdown experiment): 24 nM
EC50 (OVCAR3 cells; negative control siRNA in the BM3 (CCNE1 (cyclin E1)) knockdown experiment): 25 nM
SMILES: COc1cccc(OCCCN)c1-c1cc(Nc2cnc(C#N)cn2)n[nH]1 [prexasertib, 5-(5-(2-(3-aminopropoxy)-6-methoxyphenyl)-1H-pyrazol-3-ylamino)pyrazine-2-carbonitrile]
overall unenriched response rate ([1]; all patients of the FFPE cohort): 25%
Clinical RECIST responder rate (PR or CR) ([1]; among those predicted by the Response-Predictive Signature to be non-responders): 5%
Clinical RECIST responder rate (PR or CR) ([1]; among those predicted by the Response-Predictive Signature to be responders): 58%
Best Tumor Shrinkage (fraction from baseline) [1, 2]: 0.048 and 0.159 and −0.037 and −0.118 (2×) and 0.353 and −0.024 and −0.077 and 0 (2×) and 0.342 and 0.105 and −0.192 and 0.146 and −0.012 and 0.015 and 0.24 and 0.1 and 0.04 and 0.01
RECIST response category [1, 2]: SD (16×) and PD (3×) and PR
RECIST Responder [1, 2]: FALSE (19×) and TRUE
Best Tumor Shrinkage (fraction from baseline) [1, 3]: 0.146 and 0 and 0.441 and 0.52 and 0.584 and −0.287 and 0.038 and 0.492 and 0.59 and 0.35 and 0.14 and 0.444
RECIST response category [1, 3]: SD (4×) and PR (7×) and PD
RECIST Responder [1, 3]: FALSE (5×) and TRUE (7×)
ORR in trials (Head and Neck, SCC): 5%
